# PubChem BioAssay (NCI)
# Values joined by “and” are separate entries in the source; they are usually repeats but may differ in a detail not shown here. Equal values may be shown once.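 In this assay, cells in 96-well plates receive the compound at five concentrations for 48 hours. Endpoints are linearly interpolated between the surrounding concentrations. GI50 marks 50% less growth. TGI marks complete inhibition of growth.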
# Tests used:
# Test in all cases: NCI anticancer screen, dose series, 48 h
# [1] = tested on: 786-0 renal
# [2] = tested on: SK-OV-3 ovarian
# [3] = tested on: NCI-H226 lung
# [4] = tested on: HCC-2998 colon
# [5] = tested on: IGROV1 ovarian
# [6] = tested on: ACHN renal
# [7] = tested on: NCI-H460 lung
# [8] = tested on: EKVX NSCLC
# [9] = tested on: PC-3 prostate
# [10] = tested on: OVCAR-4 ovarian
Compound,GI50 [1] [µM],TGI [1] [µM],GI50 [2] [µM],TGI [2],GI50 [3] [µM],TGI [3],GI50 [4] [µM],TGI [4],GI50 [5] [µM],TGI [5] [µM],GI50 [6] [µM],TGI [6] [µM],GI50 [7] [µM],TGI [7],GI50 [8] [µM],TGI [8],GI50 [9] [µM],TGI [9] [µM],GI50 [10] [µM],TGI [10]
O=c1cc(N/N=C/c2ccc(F)cc2)c2cc(Cl)ccc2[nH]1,26.3,> 100,20.1,83.4 µM,14.6,> 100 µM,32.4,> 100 µM,18.5,> 100,17.2,72.1,20.3,> 100 µM,16.8,> 100 µM,8.41,96.3,,
COC(=O)COc1ccc(/C=C2/N=C(c3ccccc3)N(c3c(C)n(C)n(-c4ccccc4)c3=O)C2=O)cc1,19.7,37,17.3,37.9 µM,25.3,63.5 µM,16.9,33.4 µM,23.6,42.3,17.6,31.4,26,> 100 µM,37.8,> 100 µM,19.6,37.9,26.5,70.9 µM
COc1cc2c(cc1O)CC1c3c(cc(O)c(OC)c3-2)CCN1C (centres undefined),,> 100,,> 100 µM,,> 100 µM,,> 100 µM,,> 100,,> 100,,> 100 µM,,> 100 µM,,> 100,,> 100 µM
Cc1cc(N=C2C=C(Br)C(=O)C(Br)=C2)cc(CN(CC(=O)O)CC(=O)O)c1O,,> 100,,> 100 µM,,> 100 µM,,> 100 µM,,> 100,,> 100,,> 100 µM,,> 100 µM,,> 100,,> 100 µM
Cc1c(-c2ccnc(N)n2)c2c(n1Cc1ccccc1)C(=O)c1ccccc1C2=O,5.02,71,18.2,77.4 µM,,,12.9,35.8 µM,4.84,54.7,8.34,36.8,6.42,26.5 µM,7.11,41.2 µM,49.1,> 100,20.7,> 100 µM
C1=C2CCCC3=Cc4ccccc4OC23Oc2ccccc21,6.41,> 100,3.52,> 100 µM,> 100,> 100 µM,10.3,60.7 µM,5.36,> 100,5.06,> 100,3.47,16.4 µM,5.49,> 100 µM,4,> 100,6.12,> 100 µM
O=C(c1ccccc1)c1c(NCC(O)CN2CCOCC2)n(Cc2ccccc2)c(=O)n(Cc2ccccc2)c1=O (centres undefined),54.1,> 100,> 29.9,> 70.1 µM,31.6,> 95.1 µM,1.26,4.86 µM,38.5,> 100,40.5,> 100,42.9,> 100 µM,> 48.6,> 90.8 µM,39.4,> 100,> 45.4,> 95.3 µM
CCCCCC[C@H](C)Nc1nc2ccccc2c2occc12,9.87,21.7,16.5,36.2 µM,,,1.4,8.94 µM,0.787,13.2,11.7,23.9,> 100,> 100 µM,2.26,7.04 µM,14.8,35.5,,
C=CC(=O)Nc1cc(N2CCN(CC)CC2)ccc1Nc1cc(N(C)C(=O)Nc2c(Cl)c(OC)cc(OC)c2Cl)ncn1,2.97,12.1,12.3,27.5 µM,14.2,35.8 µM,2.49,6.3 µM,2.58,7.35,11.5,23.8,7.67,24.7 µM,12.4,35.9 µM,5.05,20.8,5.35,22.9 µM
CC(C)Cc1ccc(C(C)CC2=CCC(CN(C)C)C2=O)cc1 (centres undefined),,3.34,,31.7 µM,,33.7 µM,,17 µM,,24,,30.4,,48.9 µM,,33.9 µM,,28.4,,41.6 µM
COc1cc2c(cc1OCCCCCCN1CCN(CC(=O)Nc3ccc(Cl)cc3C(=O)c3ccccc3Cl)CC1)N=CC1CCCN1C2=O (centres undefined),0.339,0.823,0.494,1.17 µM,0.575,1.45 µM,0.173,0.314 µM,0.195,0.388,0.3,0.765,0.18,0.334 µM,0.477,1.14 µM,0.308,0.715,0.419,1.25 µM
CC(C)=CCC(OC(=O)C=C(C)C)C1=CC(=O)c2c(O)ccc(O)c2C1=O (centres undefined),2.59,6.86,21.2,49.8 µM and 12.4 µM,1.99,4.02 µM and 6.72 µM,12.7,26.7 µM and 6.44 µM,,4.42,0.605,2.53,5.21,21.1 µM and 6.53 µM,2.28,6.2 µM and 2.2 µM,1.55,8.74,1.73,4.16 µM and 1.48 µM
S=c1nc(N/N=C/c2ccco2)c2cn[nH]c2[nH]1,> 100,> 100,92.7,> 100 µM,> 100,> 100 µM,22.4,88.7 µM,46.9,> 100,> 100,> 100,17.9,> 100 µM,51,> 100 µM,57.5,> 100,> 100,> 100 µM
COc1ccc(C(=O)NNc2nc(Cl)nc(N3CCN(C(c4ccccc4)c4ccccc4)CC3)n2)cc1,3.37,12.9,11.9,25.8 µM,18.9,45.1 µM,1.49,2.89 µM,1.67,3.11,1.76,3.16,3.52,11.9 µM,3.43,14.8 µM,1.74,3.59,1.81,3.56 µM
C#Cc1nc2ccccc2c(=O)[nH]1,0.582,2.12,6.54,40.1 µM,0.513,11.7 µM,1.6,3.11 µM,0.585,1.7,0.336,1.32,1.79,7.66 µM,,,0.674,2.54,1.38,2.79 µM
Cc1nc(Nc2ccccn2)sc1C(=O)/C=C/c1ccc(Cl)cc1,0.549,> 47.2,0.494,> 100 µM,1.09,26 µM,0.383,9.62 µM,0.413,30.6,0.559,31,0.353,> 100 µM,0.846,> 100 µM,0.368,> 100,0.778,> 100 µM
Cn1cc(-c2ccc3nnc(Sc4ccc5ncccc5c4)n3n2)cn1,> 100,> 100,> 73.9,> 100 µM,> 59.1,> 100 µM,> 100,> 100 µM,> 88.6,> 100,54.1,> 100,79.2,> 100 µM,97,> 100 µM,> 92.7,> 100,> 100,> 100 µM
C=C1CCC2(C#N)[C@H]3[C@H](CC[C@@H]2C)[C@@H](C)C[C@@H](CC(C)(C)NC(=O)CN2CCC2=O)[C@H]13 (some centres undefined),13.7,37.8,15.8,50.2 µM,11.2,33.7 µM,7,22.8 µM,6.03,23,11.3,51.4,7.81,20.5 µM,6.42,> 100 µM,4.7,36.6,8.9,> 100 µM
Cn1c(-c2ccc(/C=N/NC(=S)N/N=C/c3ccc(-c4c[n+]5ccsc5n4C)cc3)cc2)c[n+]2ccsc12,,> 100,,> 100 µM,,,,> 100 µM,,> 100,,> 100,,> 100 µM,,> 100 µM,,> 100,,> 100 µM
O=C(Nn1c(-c2ccccc2)nc2ccccc2c1=O)c1ccccc1O,,> 100,,> 100 µM,,> 100 µM,,> 100 µM,,> 100,,> 100,,> 100 µM,,> 100 µM,,> 100,,> 100 µM
O=C1CCC(N2C(=O)c3ccccc3C2=O)C(=O)N1 (centres undefined),,> 100,,> 100 µM,> 100,> 100 µM,,> 100 µM,,> 100,,> 100,,> 100 µM,,> 100 µM,,> 100,,> 100 µM
COc1ncnc(S(=O)(=O)c2ccc(N=C3C(=O)N(CN4CCN(c5cc6c(cc5F)c(=O)c(C(=O)O)cn6C5CC5)CC4)c4ccc(Cl)cc43)cc2)c1OC,33.7,> 50,,,38.9,> 50 µM,37.9,> 50 µM,> 50,> 50,10.2,> 50,37.4,> 50 µM,1.24,> 50 µM,34.9,> 50,,
Cc1nc(Nc2cccnc2)sc1C(=O)/C=C/c1ccc(Cl)cc1,1.95,6.48,3.88,> 100 µM,2.75,8.12 µM,3.06,10.5 µM,3.29,> 100,,,3.5,13.8 µM,6.99,> 100 µM,3.27,12,5.14,> 100 µM
COc1cc(C)c(C2NC(=O)c3ccccc3N2)cc1C (centres undefined),,> 100,,,,16.5 µM,,25.9 µM,,> 100,,> 95.4,,26.5 µM,,> 100 µM,,15.6,,> 82.9 µM
Cn1cc(C2=C(c3cn(C)c4ccc(Cl)cc34)C(=O)NC2=O)c2ccccc21,4.03,16.9,2.87,> 21 µM,4.56,17.4 µM,6.76,> 23.9 µM,6.51,> 21.7,3.15,> 25,3.25,8.9 µM,,,3.88,> 23.2,6,> 23.5 µM
COc1ccc(-c2nc(-c3nc4ccc(F)cc4[nH]3)c3ccccn23)cc1,8.82,61.5,10.3,37.3 µM,2.72,9.06 µM,6.59,> 100 µM,6.63,47.2,4.28,25.9,6.83,> 100 µM,,,6.14,46.9,6.92,> 100 µM
O=C(Nc1ccc(-c2nc(-c3cccc(OCCN4CCOCC4)c3)c(-c3ccnc(Br)c3)[nH]2)cc1)c1ccccc1,0.741,2.39,2.15,4.79 µM,2.94,> 100 µM,2.76,> 100 µM,4.61,> 100,3.55,> 100,2.81,9.3 µM,2.01,6.97 µM,2.36,> 100,,
OCc1ccc(-c2cscc2-c2ccc(CO)o2)o1,> 33.8,> 100,8.98,50.3 µM,0.112,0.485 µM,24.2,> 96.6 µM,0.576,6.47,> 100,> 100,1.34,5.92 µM,,,> 75,> 100,4.79,49.4 µM
